Laboratory results: paper PMC11193019, “Transient kinetics reveal the mechanism of competitive inhibition of the neutral amino acid transporter ASCT2” (The Journal of Biological Chemistry, 2024)
Where a chain is given by its changes, count along the chain named.

Legend:
Assay type in all cases: cell-based
ASCT2 (rASCT2) [1] = molecular target: T1, ASCT2 (rASCT2) (Rattus norvegicus, UniProt D3ZJ25, D402N); experiment: whole-cell patch clamp, anion current dose response at […] Na+
T1 construct: gene Slc1a5; rASCT2 mutant expressed in HEK293T cells
T1 sequence (D3ZJ25 1-555 D402N): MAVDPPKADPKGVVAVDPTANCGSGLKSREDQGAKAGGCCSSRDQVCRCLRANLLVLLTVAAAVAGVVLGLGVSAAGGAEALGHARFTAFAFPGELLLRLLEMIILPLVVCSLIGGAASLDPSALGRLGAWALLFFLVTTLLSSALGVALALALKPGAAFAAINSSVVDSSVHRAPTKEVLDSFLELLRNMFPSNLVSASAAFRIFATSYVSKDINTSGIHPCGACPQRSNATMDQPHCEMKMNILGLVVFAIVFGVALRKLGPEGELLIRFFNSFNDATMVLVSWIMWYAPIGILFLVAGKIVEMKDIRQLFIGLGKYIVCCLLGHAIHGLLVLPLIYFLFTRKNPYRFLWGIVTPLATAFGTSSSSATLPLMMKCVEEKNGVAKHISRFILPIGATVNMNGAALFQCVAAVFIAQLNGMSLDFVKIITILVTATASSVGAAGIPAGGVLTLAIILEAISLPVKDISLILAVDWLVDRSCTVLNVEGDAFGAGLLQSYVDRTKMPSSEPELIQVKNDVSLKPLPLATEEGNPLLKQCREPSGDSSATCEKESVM

ASCT2 (rASCT2) [2] = molecular target: T2, ASCT2 (rASCT2) (Rattus norvegicus, UniProt D3ZJ25, D489N); experiment: as above
T2 construct: gene Slc1a5; rASCT2 mutant expressed in HEK293T cells
T2 sequence (D3ZJ25 1-555 D489N): T1 sequence (D3ZJ25 1-555 D402N) with N402D, D489N

ASCT2 (rASCT2) [3] = molecular target: T3, ASCT2 (rASCT2) (Rattus norvegicus, UniProt D3ZJ25); experiment: whole-cell patch clamp (leak anion current block dose response; rapid solution exchange and displacement by serine)
T3 construct: gene Slc1a5; rASCT2 cDNA in pBK-CMV, expressed in HEK293T cells
T3 sequence (D3ZJ25 1-555): T1 sequence (D3ZJ25 1-555 D402N) with N402D

O=C(O[C@@H]1CN[C@H](C(=O)O)C1)c1ccc(-c2ccccc2)cc1 [Lc-BPE, L-cis hydroxyproline biphenyl ester]
IC50 (ASCT2 (rASCT2) [1]): 1600 ± 100 nM | IC50 (ASCT2 (rASCT2) [2]): 4400 ± 800 nM | IC50 (ASCT2 (rASCT2) [3]): 830 ± 200 nM
